Results taken from article PMC10112521, “High-throughput AR dimerization assay identifies androgen disrupting chemicals and metabolites” (Frontiers in Toxicology, 2023).
Read-outs that look alike come from different tables or passages of the source.

Legend:
[1] = system: AR2 cells (HepG2-AR2)
Procedure: (§1) For antagonist mode and cytotoxicity data, well-level normalized response (resp) was calculated as: resp=100 * RLU−bval/pval−bval where pval is the median RLU value of the MEC positive control wells (minimum four wells).

[2] = system: AR2 cells (HepG2-AR2); experiment: Alamar Blue (resazurin) post hoc cell viability / cytotoxicity assay in AR2 cells; settings: spid Viability, sheet antagonist_fits; for hill_tp (Hill model top): 0 where win_model is Constant
Procedure: as §1

[3] = target: T1, human AR (Homo sapiens, UniProt P10275); experiment: AR2 assay, agonist mode: ligand-dependent AR homodimerization (NanoBiT luciferase complementation) in stable HepG2-AR2 cells; type: cell-based;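 on hill tp: Log2 fold change of luminescence over DMSO vehicle wells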;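 on max med: Log2 fold change of luminescence over DMSO vehicle wells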
T1 sequence (P10275 1-920) 1: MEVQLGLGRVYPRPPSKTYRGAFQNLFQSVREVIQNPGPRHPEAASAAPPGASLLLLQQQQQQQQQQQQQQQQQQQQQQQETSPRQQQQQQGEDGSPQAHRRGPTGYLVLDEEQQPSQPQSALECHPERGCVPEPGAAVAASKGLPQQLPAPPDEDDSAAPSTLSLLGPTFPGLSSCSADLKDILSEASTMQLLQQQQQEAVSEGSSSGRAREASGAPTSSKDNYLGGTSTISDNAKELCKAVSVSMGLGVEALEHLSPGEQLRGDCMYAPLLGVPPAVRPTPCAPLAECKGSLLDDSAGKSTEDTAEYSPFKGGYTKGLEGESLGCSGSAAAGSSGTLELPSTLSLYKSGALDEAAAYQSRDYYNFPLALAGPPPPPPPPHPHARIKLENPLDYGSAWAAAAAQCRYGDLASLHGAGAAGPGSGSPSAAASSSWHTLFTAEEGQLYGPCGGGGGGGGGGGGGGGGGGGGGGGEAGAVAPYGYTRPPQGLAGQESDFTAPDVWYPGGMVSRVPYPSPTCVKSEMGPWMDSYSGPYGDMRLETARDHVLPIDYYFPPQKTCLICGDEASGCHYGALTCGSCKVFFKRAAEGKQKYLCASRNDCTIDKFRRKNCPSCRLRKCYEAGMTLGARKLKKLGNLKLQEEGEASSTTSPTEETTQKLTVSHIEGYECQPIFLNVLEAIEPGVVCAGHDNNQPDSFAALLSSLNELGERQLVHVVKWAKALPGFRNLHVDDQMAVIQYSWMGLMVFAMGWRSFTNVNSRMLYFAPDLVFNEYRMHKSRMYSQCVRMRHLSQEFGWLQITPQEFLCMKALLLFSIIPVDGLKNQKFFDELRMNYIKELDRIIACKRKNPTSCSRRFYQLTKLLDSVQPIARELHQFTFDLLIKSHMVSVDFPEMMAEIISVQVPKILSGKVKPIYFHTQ
T1 sequence (P10275 1-920) 2: T1 sequence (P10275 1-920) 1

[4] = target: T1, human AR; experiment: cell-based; set-up: species or system AR2 cells (HepG2-AR2); NanoLuc complementation AR homodimerization, antagonist mode, loss of agonist-induced luminescence, AC50 by Hill fit; settings: hill_ga
[5] = target: T1, human AR; experiment: AR2 assay, antagonist mode: disruption of R1881 (10 nM)-induced AR homodimerization in HepG2-AR2 cells; type: cell-based
[6] = system: AR; set-up: method as in Kleinstreuer et al., 2017; settings: AR agonist reference class ref Kleinstreuer et al., 2017, cited from earlier work
[7] = system: full-length human AR and the receptor interacting domain (RID) of SRC1; set-up: method as in U.S. EPA, 2002b; settings: cited from earlier work
[8] = sheet agonist_fits, Hill model top (efficacy), 0 given where win_model is Constant
[9] = sheet agonist_fits, maximum median response
[10] = sheet agonist_fits, winning concentration-response model (Constant, Hill, Gain-Loss)
[11] = spid AR_antagonist, sheet antagonist_fits
[12] = spid AR_antagonist, sheet antagonist_fits, 0 where win_model is Constant
[13] = spid=Bgal, antagonist mode, 10 nM agonist stimulus, 18 h, no CYP expressed
[14] = spid=No_RNA, antagonist mode, 10 nM agonist stimulus, 18 h, no CYP expressed
[15] = spid AR_antagonist, sheet antagonist_fits, Hill fit parameter

Structure (SMILES) | hill_ga (Hill model log AC50) [1] | max_med (maximum median response) [2] | hill_tp (Hill model top) [2] | hill_tp [3, 8] | max_med [3, 9] | win_model [3, 10] | further results
O=C1c2ccccc2C(=O)N1SC(Cl)(Cl)Cl [Folpet] | 1.483 | 26.2456 | 26.8665 |  |  |  | 
CNC(=O)Oc1cccc2c1OC(C)(C)C2 [Carbofuran] |  | 23.3178 | 15.7111 | 0 | 0.1027 | Constant | AC50 [4]: 44.2 µM; max_med (maximum median response) [5, 11]: 28.4656; win_model (winning concentration-response model) [5, 11]: Hill; hill_gw (Hill model slope) [5, 12]: 1.516; hill_tp (Hill model top) [5, 12]: 33.2623
O=c1c(-c2ccc(O)cc2)coc2cc(O)ccc12 [Daidzein] |  | 12.142 | 8.263 | 0 | 0.1579 | Constant | AC50 [4, 13]: 59.8 µM; AC50 [4, 14]: 46.5 µM; Agonist reference ([6]; Supplementary Table S1): Inactive; max_med (maximum median response) [5, 11]: 67.6764; win_model (winning concentration-response model) [5, 11]: Hill; hill_gw (Hill model slope) [5, 12]: 1.585; hill_tp (Hill model top) [5, 12]: 87.2882
CC(C)(C)CC(C)(C)c1ccc(O)cc1 [4-(1,1,3,3-Tetramethylbutyl)phenol] | 1.5 | 99.7722 | 100.987 |  |  |  | 
CCCCOC(=O)c1ccccc1C(=O)OCCCC [Dibutyl phthalate] | 1.084 | 27.2383 | 28.3952 |  |  |  | 
CCC(C)(c1ccc(O)cc1)c1ccc(O)cc1 [Bisphenol B] | 1.739 | 49.2471 | 49.223 |  |  |  | 
O=c1cc(-c2ccc(O)cc2)oc2cc(O)cc(O)c12 [Apigenin] | 1.291 | 44.3137 | 57.4844 |  |  |  | 
Oc1ccc(C(c2ccc(O)cc2)(C(F)(F)F)C(F)(F)F)cc1 [Bisphenol AF] | 1.485 | 99.8528 | 100.2 |  |  |  | 
CC(C)(c1ccccc1)c1ccc(O)cc1 [4-Cumylphenol] | 1.81 | 99.676 |  |  |  |  | 
C=C1C[C@@H]2[C@H](CC[C@]3(C)C(=O)CC[C@@H]23)[C@@]2(C)C=CC(=O)C=C12 [Exemestane] |  |  |  |  |  |  | hill_tp (Hill model top) [1]: 0; max_med (maximum median response) ([1]; spid Viability, sheet antagonist_fits): 7.414
O=c1c(-c2ccc(O)cc2)coc2cc(O)cc(O)c12 [Genistein] |  | 23.3224 | 24.3043 | 0 | 0.108 | Constant | AC50 [4, 13]: 9.34 µM; AC50 [4, 14]: 9.32 µM; hill_tp (Hill model top) [5]: 100.659; max_med (maximum median response) [5]: 101.398; win_model (winning concentration-response model) [5, 11]: Hill; hill_gw (Hill model slope) [5, 12]: 2.066
Clc1ccc(C(c2ccc(Cl)cc2)C(Cl)Cl)cc1 [p,p'-DDD] | 1.74 |  |  |  |  |  | hill_tp (Hill model top of curve) ([1]; human, 18 h): 93.5622; max_med (maximum median response) ([1]; human, 18 h): 93.2611
Nc1nc[nH]n1 [Amitrole] | 1.008 | 20.9539 | 26.1033 |  |  |  | 
CC/C(=C(\c1ccc(O)cc1)c1ccc(OCCN(C)C)cc1)c1ccccc1 [Afimoxifene (4-Hydroxytamoxifen)] |  | 99.7378 | 99.9149 | 0 | 0.04316 | Constant | AC50 [4, 13]: 7.28 µM; AC50 [4, 14]: 5.39 µM; max_med (maximum median response) [5, 11]: 104.395; win_model (winning concentration-response model) [5, 11]: Hill; hill_gw (Hill model slope) [5, 12]: 3.209; hill_tp (Hill model top) [5, 12]: 105.037
CCOC(=O)c1ccccc1C(=O)OCC [Diethyl phthalate] | 0.07147 | 22.6345 | 17.9391 |  |  |  | 
C#CCOS(=O)OC1CCCCC1Oc1ccc(C(C)(C)C)cc1 (centres unmarked) [Propargite] | 0.5083 | 5.892 | 5.298 |  |  |  | 
N#Cc1c(Cl)cccc1Cl [Dichlobenil] | 0 | 10.2924 | 0 |  |  |  | 
O=[N+]([O-])c1ccc(O)c([N+](=O)[O-])c1 [2,4-Dinitrophenol] |  | 17.6561 | 19.403 | 0 | 0.06149 | Constant | AC50 [4, 13]: 61.4 µM; AC50 [4, 14]: 35.8 µM; max_med (maximum median response) [5, 11]: 41.2653; win_model (winning concentration-response model) [5, 11]: Hill; hill_gw (Hill model slope) [5, 12]: 1.229; hill_tp (Hill model top) [5, 12]: 60.4053
C[C@]12C=CC3=C4CCC(=O)C=C4CC[C@H]3[C@@H]1CC[C@@H]2O [17beta-Trenbolone] |  | 21.7453 | 17.3642 |  |  |  | OT 8 hr [7]: 1; OT 16 hr [7]: 1; AR2 agonist [3]: 1; activity call in agonist mode [3]: tested active; hill_gw [3]: 0.7579; hill_tp [3]: 6.165; max_med [3]: 6.198; win_model [3]: Hill; Agonist reference [6]: Strong; Agonist reference ([6]; Supplementary Table S1): Strong; hill_gw (Hill model slope) [5]: 6.214; hill_tp (Hill model top) [5]: 20.2687; max_med (maximum median response) [5]: 20.7317; win_model (winning concentration-response model) [5]: Gain-Loss
COP(=O)(OC)O/C(=C\Cl)c1cc(Cl)c(Cl)cc1Cl [Z-Tetrachlorvinphos] |  | 16.5553 |  | 0 | 0.08626 | Constant | AC50 [4, 13]: 28.8 µM; AC50 [4, 14]: 28.9 µM; hill_tp (Hill model top of curve) ([2]; Hill fit parameter): 16.4592; max_med (maximum median response) [5, 11]: 94.4561; win_model (winning curve-fit model) ([5]; spid AR_antagonist, sheet antagonist_fits, Constant = no concentration response): Hill; hill_gw (Hill model slope/Hill coefficient) [5, 15]: 1.437; hill_tp (Hill model top of curve) [5, 15]: 113.966
